tested on: kynurenine production in IFN-γ-treated KATO-III cells; assay: Inhibitory activity on kynurenine production (Test Example 1); assay type: cell-based; conditions: Homo sapiens, IFN-γ treatment, culture for 96 hours, read-out: IC50 value, inhibition of kynurenine production
In short: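 KATO-III human gastric cancer cells (2,000/well, RPMI 1640 + 10% FBS) were cultured with compound and IFN-γ (31.25 ng/mL in the cell suspension), DMSO ≤0.1%, for 96 h at 37 °C, 5% CO2. Kynurenine was read at A480 after TCA at 65 °C and p-dimethylaminobenzaldehyde. Inhibition used IFN-γ-treated and untreated DMSO wells as references.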

Structure (SMILES)	IC50 [nM]
O=S(=O)(Nc1nc2ccccc2nc1OC(c1cncs1)C(F)(F)F)c1ccccc1Cl (centres unmarked) [Compound 113, 2-chloro-N-{3-[2,2,2-trifluoro-1-(thiazol-5-yl)ethoxy]-quinoxalin-2-yl}benzenesulfonamide]	< 1000
Cc1ncc(C(Oc2nc3ccccc3nc2NS(=O)(=O)c2ccccc2Cl)C(F)(F)F)n1C (centres unmarked) [Compound 115, 2-chloro-N-{3-[2,2,2-trifluoro-1-(1,2-dimethyl-1H-imidazol-5-yl)ethoxy]quinoxalin-2-yl}benzenesulfonamide]	< 1000
O=S(=O)(Nc1nc2ccccc2nc1OC(C1CCOCC1)C(F)(F)F)c1ccccc1Cl (centres unmarked) [Compound 116, 2-chloro-N-{3-[2,2,2-trifluoro-1-(tetrahydro-2H-pyran-4-yl)ethoxy]quinoxalin-2-yl}benzenesulfonamide]	< 1000
O=S(=O)(Nc1nc2ccccc2nc1OC(C1CCCCC1)C(F)(F)F)c1ccccc1Cl (centres unmarked) [Compound 118, 2-chloro-N-[3-(1-cyclohexyl-2,2,2-trifluoroethoxy)-quinoxalin-2-yl]benzenesulfonamide]	< 1000
Cc1nn(C)c(Cl)c1S(=O)(=O)Nc1nc2ccccc2nc1OC(C1CCOCC1)C(F)(F)F (centres unmarked) [Compound 120, 5-chloro-1,3-dimethyl-N-{3-[2,2,2-trifluoro-1-(tetrahydro-2H-pyran-4-yl)ethoxy]quinoxalin-2-yl}-1H-pyrazole-4-sulfonamide]	< 1000
O=S(=O)(Nc1nc2ccccc2nc1OC(c1cnc(Br)s1)C(F)(F)F)c1ccccc1Cl (centres unmarked) [Compound 126, 2-chloro-N-{3-[2,2,2-trifluoro-1-(2-bromothiazol-5-yl)-ethoxy]quinoxalin-2-yl}benzenesulfonamide]	< 1000
Cn1c(C(Oc2nc3ccccc3nc2NS(=O)(=O)c2ccccc2Cl)C(F)(F)F)cc2ccccc21 (centres unmarked) [Compound 127, 2-chloro-N-{3-[2,2,2-trifluoro-1-(1-methyl-1H-indol-2-yl)-ethoxy]quinoxalin-2-yl}benzenesulfonamide]	< 1000
Cc1noc(C)c1S(=O)(=O)Nc1nc2ccccc2nc1OC(c1cc2ccccc2n1C)C(F)(F)F (centres unmarked) [Compound 128, 3,5-dimethyl-N-{3-[2,2,2-trifluoro-1-(1-methyl-1H-indol-2-yl)ethoxy]quinoxalin-2-yl}isoxazole-4-sulfonamide]	< 1000
Cc1nn(C)c(Cl)c1S(=O)(=O)Nc1nc2ccccc2nc1OC(c1cc2ccccc2n1C)C(F)(F)F (centres unmarked) [Compound 129, 5-chloro-1,3-dimethyl-N-{3-[2,2,2-trifluoro-1-(1-methyl-1H-indol-2-yl)ethoxy]quinoxalin-2-yl}-1H-pyrazole-4-sulfonamide]	< 1000
Cc1noc(C)c1S(=O)(=O)Nc1nc2ccccc2nc1OC(C1CCSCC1)C(F)(F)F (centres unmarked) [Compound 131, 3,5-dimethyl-N-{3-[2,2,2-trifluoro-1-(tetrahydro-2H-thiopyran-4-yl)ethoxy]quinoxalin-2-yl}isoxazole-4-sulfonamide]	< 1000

Other lines, results leading:

IC50 [nM]	Structure (SMILES)
< 1000	O=S(=O)(Nc1nc2ccccc2nc1OC(C1CC1)C(F)(F)F)c1ccccc1Cl (centres unmarked) [Compound 117, 2-chloro-N-[3-(1-cyclopropyl-2,2,2-trifluoroethoxy)-quinoxalin-2-yl]benzenesulfonamide]
< 1000	Cc1noc(C)c1S(=O)(=O)Nc1nc2ccccc2nc1OC(C1CCOCC1)C(F)(F)F (centres unmarked) [Compound 119, 3,5-dimethyl-N-{3-[2,2,2-trifluoro-1-(tetrahydro-2H-pyran-4-yl)ethoxy]quinoxalin-2-yl}isoxazole-4-sulfonamide]
< 1000	CC1(C(Oc2nc3ccccc3nc2NS(=O)(=O)c2ccccc2Cl)C(F)(F)F)CCOCC1 (centres unmarked) [Compound 121, 2-chloro-N-{3-[2,2,2-trifluoro-1-(4-methyltetrahydro-2H-pyran-4-yl]ethoxy}quinoxalin-2-yl)benzenesulfonamide]
< 1000	Cc1nn(C)c(Cl)c1S(=O)(=O)Nc1nc2ccccc2nc1OC(C1CCSCC1)C(F)(F)F (centres unmarked) [Compound 130, 5-chloro-1,3-dimethyl-N-{3-[2,2,2-trifluoro-1-(tetrahydro-2H-thiopyran-4-yl)ethoxy]quinoxalin-2-yl}-1H-pyrazole-4-sulfonamide]
